This passage reports IC50 results from ChEMBL document CHEMBL1142761, “SAR studies of 6-aryl-1,3-dihydrobenzimidazol-2-ones as progesterone receptor antagonists” (Bioorg Med Chem Lett, 2005).

The target of the first test is T1, Progesterone receptor (Homo sapiens, UniProt P06401).
T1 sequence (P06401 whole entry): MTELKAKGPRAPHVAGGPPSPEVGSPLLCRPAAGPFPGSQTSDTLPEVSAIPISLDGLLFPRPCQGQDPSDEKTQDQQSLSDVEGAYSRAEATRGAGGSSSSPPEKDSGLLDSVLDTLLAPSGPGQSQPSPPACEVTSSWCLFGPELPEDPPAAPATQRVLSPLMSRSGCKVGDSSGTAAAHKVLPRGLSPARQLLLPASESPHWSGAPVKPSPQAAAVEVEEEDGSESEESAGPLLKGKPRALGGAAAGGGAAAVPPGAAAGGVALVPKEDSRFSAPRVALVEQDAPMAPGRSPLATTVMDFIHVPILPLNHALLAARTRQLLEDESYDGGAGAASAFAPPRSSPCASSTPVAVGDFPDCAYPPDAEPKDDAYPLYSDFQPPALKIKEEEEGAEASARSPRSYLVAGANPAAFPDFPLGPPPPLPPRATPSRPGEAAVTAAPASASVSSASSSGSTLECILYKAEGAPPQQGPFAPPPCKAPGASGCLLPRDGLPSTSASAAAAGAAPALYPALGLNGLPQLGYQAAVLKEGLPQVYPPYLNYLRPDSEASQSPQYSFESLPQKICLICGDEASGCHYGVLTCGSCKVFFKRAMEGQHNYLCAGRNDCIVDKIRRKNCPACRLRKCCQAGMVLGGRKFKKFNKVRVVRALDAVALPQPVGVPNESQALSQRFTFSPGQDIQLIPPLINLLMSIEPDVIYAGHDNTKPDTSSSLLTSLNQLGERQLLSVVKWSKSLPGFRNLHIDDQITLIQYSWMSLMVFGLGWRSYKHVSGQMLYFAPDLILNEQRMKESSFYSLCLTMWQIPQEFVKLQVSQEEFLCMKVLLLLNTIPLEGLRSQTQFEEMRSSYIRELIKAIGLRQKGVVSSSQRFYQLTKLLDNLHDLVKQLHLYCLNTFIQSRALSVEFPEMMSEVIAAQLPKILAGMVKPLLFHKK
Nature of the test: Progesterone receptor agonist activity in human T47D breast carcinoma cell alkaline phosphatase assay. Type of test: functional, cell-based.
The IC50 is the midpoint of a concentration-inhibition curve. As for `CCC(CC)n1c(=O)[nH]c2ccc(-c3cc(F)cc(C#N)c3)cc21`, the IC50 came to 29 nM. On the same count and under the same terms, as for `CCC(CC)n1c(=O)[nH]c2ccc(-c3ccc(F)c(Cl)c3)cc21`, the figure is 426 nM. Still for that read-out and setting: as for `CCC(CC)n1c(=O)[nH]c2ccc(-c3ccc(C#N)n3C)cc21`, the figure is 11.7 nM.

A further test concerns the target T1, Progesterone receptor. Nature of the test: Progesterone receptor antagonist activity in human T47D breast carcinoma cell alkaline phosphatase assay.
`N#Cc1cc(F)cc(-c2ccc3[nH]c(=O)n(C4CCCC4)c3c2)c1` had a 50% inhibitory concentration (IC50) of 5.7 nM. On the same count and under the same terms, then `CC(C)n1c(O)nc2ccc(-c3ccc(F)c(C#N)c3)cc21`, with 60.3 nM. Still for that read-out and setting: as for `O=c1[nH]c2ccc(-c3ccc(F)c(F)c3)cc2n1C1CCC1`, the figure is 175 nM; as for `CC(C)n1c(O)nc2ccc(-c3ccc(C#N)n3C)cc21`, 4.7 nM; as for `CC(C)n1c(=O)[nH]c2ccc(-c3ccc(F)c(Cl)c3)cc21`, 106 nM. In the case of `Cn1c(C#N)ccc1-c1ccc2[nH]c(=O)n(C3CCCC3)c2c1`, the IC50 turned out to be 5.6 nM. Still for that read-out and setting: as for `CC(C)n1c(O)nc2ccc(-c3ccccc3F)cc21`, the figure is 412 nM; as for `O=c1[nH]c2ccc(-c3ccc(F)c(F)c3)cc2n1C1CCCC1`, 96.8 nM.

The compound `CC(C)n1c(O)nc2ccc(-c3ccc(F)cc3)cc21` returned an IC50 of 295 nM. The same measure, in the same setting: as for `N#Cc1cc(F)cc(-c2ccc3[nH]c(=O)n(-c4cccc(Cl)c4)c3c2)c1`, the figure is 3000 nM; as for `CC(C)n1c(=O)[nH]c2ccc(-c3cccc(F)c3)cc21`, 77.9 nM. On the same count and under the same terms, then `N#Cc1cc(F)cc(-c2ccc3[nH]c(=O)n(C4CCCCC4)c3c2)c1`, with 83.6 nM; and `CC(C)n1c(O)nc2ccc(-c3ccc(F)c(F)c3)cc21`, with 207 nM. Same read-out and setting: then `N#Cc1cc(F)cc(-c2ccc3[nH]c(=O)n(C4CCC4)c3c2)c1`, with 3.3 nM; and `CC(C)n1c(=O)[nH]c2ccc(-c3cc(Cl)cc(Cl)c3)cc21`, with 100 nM.

Compound `Cc1cc(C#N)sc1-c1ccc2nc(O)n(C(C)C)c2c1` yielded a half-inhibitory concentration (IC50) of 24.8 nM. Same read-out and setting: then `Oc1nc2ccc(-c3ccc(F)c(Cl)c3)cc2n1C1CCCC1`, with 135 nM; and `CC(C)n1c(O)nc2ccc(-c3cc(F)cc(C#N)c3)cc21`, with 29.6 nM; and `N#Cc1cc(F)cc(-c2ccc3[nH]c(=O)n(-c4ccccc4)c3c2)c1`, with 137 nM.

As for `Cn1c(C#N)ccc1-c1ccc2[nH]c(=O)n(C3CCC3)c2c1`, the IC50 was determined as 10.9 nM.

`Oc1nc2ccc(-c3ccc(F)c(Cl)c3)cc2n1C1CCC1` yielded a half-inhibitory concentration (IC50) of 106 nM.
